Article PMC5458179, “Oxidative DNA double strand breaks and autophagy in the antitumor effect of sterically hindered platinum(II) complexes in NSCLCs” (Oncotarget, 2017)

Experiments:
[1] = Pharmacokinetics, Pt in rat plasma after intravenous administration; type: in vivo, SD rats
Description: The pharmacokinetic profile of complex 3 was performed as compared with cisplatin. […] A non-compartment model was applied to analyze changes of pharmacokinetic behaviors. […] The results could be attributed to the biodistribution of the complex 3 in normal tissues as well as retention in blood circulation.
0.6 ml of blood compounds were collected from orbital cavity at 5 min followed by 0.5, 1, 2, 4, 8, 12 and 24 h after intravenous administration, heparinized and then centrifuged at 4000 rpm for 20 min at 4°C. The supernatant plasma was collected for measurement of Pt content using ICP-MS. The apparent plasma half-life time was calculated using a Phoenix Win Nonlin 6.3 Program (Pharsight Cooperation, St. Louis Missouri, USA).

A549 cells [2] = experiment: Annexin V-FITC/PI apoptosis assay (flow cytometry); type: cell-based, human; settings: A549, 50 μM for 24 h (figure legend and method: 10 μM)
Description: (§1) Apoptosis is a crucial programmed death form of aging or damaged cells. […] To further explore the impact of complex 3 on long-term clonogenic survival, colony formation assay was performed.
(§2) Annexin V-FITC apoptosis detection kit (Keygen, Jiangsu, China) assay was performed according to the manufacturer's protocol. […] Then the cells were collected, resuspended in binding buffer (pH 7.5, 10 mM HEPES, 2.5 mM CaCl2 and 140 mM NaCl), incubated with Annexin V-FITC and then PI for 10 min in the dark at room temperature, the processed cells were analyzed by flow cytometry (FACSCalibur, Becton Dickinson) and a computer station running Cell-Quest software. (BD Biosciences, Franklin Lakes, NJ).

NCI-H1299 cells [3] = experiment: Annexin V-FITC/PI apoptosis assay (flow cytometry); type: cell-based, human; settings: NCI-H1299, 50 μM for 24 h (figure legend and method: 10 μM)
Description: as §1, §2

A549 cells [4] = experiment: Cell-cycle analysis (PI staining, flow cytometry); type: cell-based, human; settings: A549, 10 μM
Description: (§3) With the untreated A549 and NCI-H1299 cells, the percentage of cells in the G1 phase was at 21.29%, 18.96% with 15.28%, 22.94% in the G2/M phase, respectively.
(§4) Cell cycle was analyzed by flow cytometry as described previously. Data were analyzed with FlowJo software (TreeStar, Inc.).

NCI-H1299 cells [5] = experiment: Cell-cycle analysis (PI staining, flow cytometry); type: cell-based, human; settings: NCI-H1299, 10 μM
Description: as §3, §4

Herring sperm DNA = experiment: DNA platination by EtBr fluorescence; settings: 0.01 mg/mL DNA, pH 7.4, 37°C, 24 h
Description: The better cytotoxicity of complex 3 owing to the DNA platination could be detected in the presence of EtBr as a probe via fluorescent measurements, because their DNA platination could prevent the formation of EtBr-DNA complex, resulting in its stoichiometric loss of fluorescence.
Herring sperm DNA was dissolved in 10 mM phosphate buffer (pH 7.4) containing 10 mM NaClO4. The DNA concentration was determined by UV-vis spectra at 260 nm with an extinction coefficient of 6600 M^−1. The mixture of DNA with platinum complexes were incubated at 37°C in the dark. The fluorescence was measured in 0.4 M NaCl to avoid the second fixation site of EtBr to DNA. EtBr (0.04 mg/mL) was added to the 0.01 mg/mL DNA solution before the fluorescence measurement. Fluorescence spectra were recorded under following conditions: scan speed 2000 nm min^−1; excitation slit width was 5 nm and emission slit width was 10 nm. The excitation and emission wavelength was 530 nm and 592 nm, respectively.

[6] = test system: L02 normal liver cell line; experiment: MTT cytotoxicity assay; type: cell-based; settings: 48 h drug exposure
Description: The results reveal that the steric hindrance plays a significant role in the cytotoxicity of complex 3.
Human cancer cell lines HepG2, SGC-7901, HCT-116, A549, NCI-H1299 and MCF-7 as well as normal liver cell line L02 were purchased from the Cell Bank of Shanghai Institute of Cell Biology. Among them, MCF-7, HepG2 cells were cultured at 37 °C in 5% CO2 with DMEM supplemented with 10% fetal bovine serum (FBS) (Hyclone, Lifescience, USA) and 1% penicillin/streptomycin (Beyotime, Nantong, China), while HCT-116, SGC-7901, A549, NCI-H1299 and L02 cells were cultured at 37 °C in 5% CO2 with RPMI-1640 supplemented with 10% FBS and 1% penicillin/streptomycin. Cells were passed every 2 days and restarted from frozen stocks upon reaching pass number 20.
In vitro cytotoxicity of the platinum compounds against human hepatocellular carcinoma (HepG-2), gastric carcinoma (SGC-7901), non-small-cell lung cancer (A549), and colorectal cancer (HCT-116) cell lines were measured by the MTT assays. Briefly, the cells were seeded in 96-well cultured plates at a density of 5000 cells/well. After overnight incubation (16 h), the cells were treated with the platinum complexes. After 48 h of incubation, 10 μL of a freshly diluted 3-(4,5-dimethyl-2-thiazolyl)-2,5-diphenyl-2H-tetrazolium bromide (MTT) solution (5 mg/mL) were added to each well and the plates were incubated at 37 °C in a humidified 5% CO2 atmosphere for 4 h. At the end of the incubation period the medium was removed and the formazan product was dissolved in 150 μL of DMSO. The cell viability was evaluated by measurement of the absorbance at 490 nm, using an Absorbance Reader (BioRad). IC50 values (compound concentration that produces 50% of cell growth inhibition) were calculated from curves constructed by plotting cell survival inhibitory rate (%) versus drug concentration logarithm. All experiments were repeated in three times. The reading values were converted to the percentage of control (% cell survival). Cytotoxic effects were expressed as IC50 values.

| Compound | t1/2, Pt concentration-time profile in rat plasma ([1]; rat, in vivo, iv, 5 mg/kg) | early and median apoptotic cells (A549 cells [2]) | early and median apoptotic cells (NCI-H1299 cells [3]) | late apoptotic cells (NCI-H1299 cells [3]) | cell cycle phase blocked (A549 cells [4]) | cell cycle phase blocked (NCI-H1299 cells [5]) | percentage of cells in the G1 phase (NCI-H1299 cells [5]; 72 h, untreated 18.96%) | DNA platination, change of EtBr fluorescent intensity (Herring sperm DNA) | IC50 [6] | t1/2, Pt concentration-time profile in rat plasma ([1]; rats, intravenous, 5 mg/kg oxaliplatin or equivalent dose) |
| --- | --- | --- | --- | --- | --- | --- | --- | --- | --- | --- |
| CC(C)C[NH+]1[C@@H]2CCCC[C@H]2[NH+](CC(C)C)[Pt-2]12[O]C(=O)CC(=O)[O]2 (some centres unmarked) [Complex 3] | ~ 24.5 h | 0.94% | 9.77% | 27.51% | G2/M phases of A549 and NCI-H1299 were blocked strikingly | G2/M phases of A549 and NCI-H1299 were blocked strikingly | 60.29% | more fluorescent intensity change compared to complex 3a | 82.6 ± 3.95 µM |  |
| O=C1[O][Pt]2([NH][C@@H]3CCCC[C@H]3[NH]2)[O]C1=O [Oxaliplatin, oxaliplatin, reference compound] |  | 29.50% | 10.27% | 15.98% | S phases were blocked | S phases were blocked |  | a little loss of fluorescent intensity | 42.9 ± 3.54 µM | ~ 13.1 h |
